# Results: patent US11299496B2, “Ligands for alpha-7 nicotinic acetylcholine receptors and methods of treating neurological and inflammatory conditions” (Northeastern University, priority 2014, dated 2022)
# Assays:
# normal mice = assay: Morris water maze memory test; format: in vivo, mouse
# Description: This test was carried out in normal mice using a Morris water maze.
# formalin-injected mice = assay: Formalin test (intraplantar formalin, paw licking, paw edema); format: in vivo, mouse
# Description: A formalin test was carried out in an open plexiglas cage, with a mirror placed at a 45° angle behind the cage to allow an unobstructed view of the paws. Mice were allowed to acclimate for 15 min in the test cage prior to injection. Each animal was injected intraplantar with 20 μl of 2.5% formalin to the right hindpaw. Each mouse was then immediately placed in the test cage. Up to two mice at one time were observed during 0 to 5 min after injection (phase 1) and during 20-45 min post injection (phase 2). The period between the two phases of nociceptive responding is generally considered to be a phase of weak activity. The amount of time spent licking the injected paw was recorded with a digital stopwatch.
# Further, the antinociceptive activity of drugs in phase II of the formalin test and their anti-allodynic response in the CCI model was tested. Mice received vehicle or methyllycaconatine (MLA, 10 mg/kg) prior to vehicle or an ED84 dose of the ago-PAM/PAM (determined from a dose-response experiment using the formalin intraplantar injection model). […] The MLA results were confirmed by testing the ED84 dose of the test compounds in the alpha-7 KO and wild type mice. Finally, it was tested whether tolerance develops to the antinociceptive effects of alpha-7 nAChR ago-PAM following 7 days of repeated injections of its ED84 dose. Mice were given the following treatments: vehicle (7 days of vehicle administration); acute alpha-7 nAChR test compounds (6 days of vehicle administration followed by alpha-7 nAChR ago-PAM on the last day); and repeated alpha-7 nAChR test compounds (7 days of alpha-7 nAChR PAM or ago-PAM).
smiles,measurement,setting,value
"NS(=O)(=O)c1ccc2c(c1)[C@H]1C=CC[C@H]1[C@@H](c1ccc(Br)cc1)N2 [Compound 1, (3aR,4S,9bS)-4-(4-bromophenyl)-3a,4,5,9b-tetrahydro-3H-cyclopenta[c]quinoline-8-sulfonamide]",memory defects in scopolamine-treated mice,normal mice; FIG. 6,dose dependently reversed the memory defects
same,"latency to find the platform, compound given alone",normal mice; normal mice,reduced the latency for the mice to find the platform
same,activity in alpha-7 nAChR knockout mice,formalin-injected mice; FIG. 3D,inactive
same,effect of GAT107 after MLA,"formalin-injected mice; MLA 10 mg/kg prior, FIG. 3C",reversed the effects of GAT107
same,nociceptive behavior of formalin phase II,"formalin-injected mice; given i.v., FIG. 3A",dose-dependently and significantly block the nociceptive behavior of formalin phase II
same,nociceptive behavior of formalin phase II,"formalin-injected mice; given orally, FIG. 3B",dose-dependently and significantly block the nociceptive behavior of formalin phase II
same,paw edema induced by formalin intraplantar injection,"formalin-injected mice; mouse, in vivo",reduced the paw edema
